Patent publication US20060281680A1, “Methods and compositions for modulating vascular integrity” (GENENTECH, INC., priority 2005, published 2006)
Numbering of substitutions follows the chain as printed. Names and notes keep the numbering of the source.

B1: PlGF: VEGFR-1 selective ligand (protein, UniProt P49763 19-221, looked up)
Placenta growth factor: LPAVPPQQWALSAGNGSSEVEVVPFQEVWGRSYCRALERLVDVVSEYPSEVEHMFSPSCVSLLRCTGCCGDENLHCVPVETANVTMQLLKIRSGDRPSYVELTFSQHVRCECRHSPGRQSPDMPGDFRADAPSFLPPRRSLPMLFRMEWGCALTGSQSAVWPSSPVPEEIPRMHPGRNGKKQQRKPLREKMKPERCGDAVPRR
B2: VEGFR2-sel: KDR-selective VEGF mutant: VEGF D63S/G65M/L66R (protein)
chain: APMAEGGGQNHHEVVKFMDVYQRSYCHPIETLVDIFQEYPDEIEYIFKPSCVPLMRCGGCCNSEMRECVPTEESNITMQIMRIKPHQGQHIGEMSFLQHNKCECRPKKDRARQENPCGPCSERRKHLFVQDPQTCKCSCKNTDSRCKARQLELNERTCRCDKPRR
B3: VEGFR1-sel: Flt-selective VEGF mutant I43A/I46A/Q79A/I83 (protein)
chain: B2 chain with I43A, I46A, S63D, M65G, R66L, Q79A

What was measured:
Type in all cases: cell-based, human
DSCR1 [1] = experiment: Western blot of DSCR1 protein in whole cell extracts of HUVECs; settings: 6 hours of stimulation
Protocol: (§1) Cells cultured in 10-cm dishes were washed twice in Tris (tris(hydroxymethyl)aminomethane)-buffered saline, and 0.6 mL RIPA buffer (10 mM PBS, 1% Nonidet P-40, 0.5% sodium deoxycholate, 0.1% sodium dodecyl sulfate [SDS], […] phenylmethylsulfonyl fluoride, 30 μg/mL aprotinin, 1 mM sodium orthovanadate), and protease inhibitors (Roche Pharmaceuticals, Gaithersburg, Md.) were added. Mouse monoclonal antibody (mAb) directed against human NFATc 1, c2, and c3 was purchased from Santa Cruz Biotechnology (Santa Cruz, Calif.). Affinity-purified goat polyclonal antibody against human E-selectin, vascular cell adhesion molecule-1 (VCAM-1), intercellular adhesion molecule-1 (ICAM-1), and Cox-2 was from BD Pharmingen. Total endothelial cell extract, polyacrylamide gel electrophoresis (PAGE), blotting, and immunodetection were performed according to the Santa Cruz Biotechnology protocol. A total of […] whole-cell extract was loaded on each lane of a 4% to 16% polyacrylamide gel. The enhanced chemiluminescence (ECL) reaction kit was purchased from Amersham Pharmacia Biotech (Piscataway, N.J.), and horseradish peroxidase streptavidin from Vector Laboratories (Burlingame, Calif.) was used. For NFATc1 experiments, equal amounts of cell extract were loaded to visualize NFATc1 (mAb 7A6; 1:500; Santa Cruz Biotechnology) and the loading control α-tubulin (mAb from ICN, Santa Ana, Calif.; 1:5000). For Cox-2 and TF immunoblot analysis equal amounts of cell lysate were loaded on a 6% to 12% gradient SDS-PAGE. Cox-2 was analyzed with an anti-Cox2 mAb (RDI, 1:500) and TF with an anti-hTF mAb (clone 7G11) was generated at Genentech, and used at a 1:500 dilution. Before loading the samples on the gel, the protein amounts were quantified and adjusted accordingly. As loading control, an anti-γ-adaptin mAb was used (1:1000) on a 4% to 20% polyacrylamide gel.
DSCR1 was PCR amplified with primers DSCR1-EcoRI-Pro 5′, adding an extra proline and DSCR1-Stop-XhoI 3′, by using DSCR1 cDNA as a template and cloned into pGEX-KG. GST-DSCR1 was expressed and purified essentially as described previously.^23 Polyclonal rabbit anti-GST-DSCR1 was prepared by immunization with recombinant GST-DSCR1. Filtered crude serum was used for Western blots (1:400).

Cox-2, E-selectin, TF = experiment: Real-time RT-PCR of inflammatory marker / VEGF target genes in HUVECs; settings: activated endothelial cells, 4 hours of incubation
Excerpt: (§2) Cells and cell assays. Primary human endothelial cells were purchased from Clonetics (Santa Rosa, Calif.) and cultured according to the manufacturer's instructions. For gene calling experiments, human umbilical vein endothelial cells (HUVECs) were purchased from Clonetics (BioWhittaker, Walkersville, Md.) and maintained in endothelial growth medium (EBM-2) complemented with 5% fetal calf serum (FCS) following the manufacturer's instructions. Cells (1×107) were split at a cell density of 19 000 cell/cm2 and triplicate experiments for each condition were run in parallel. Twenty-four hours after plating the cells, cell were washed 3 times with phosphate-buffered saline (PBS) and media (Clonetics) containing either 0.1% bovine serum albumin (BSA) or 0.1% BSA plus VEGF (30 ng/mL) or 5% FCS. RNA isolation and reverse transcription-PCR (RT-PCR) analysis was performed as described.^21 For cell culture experiments, the following conditions were used: human (h) VEGF, 30 ng/mL; hTNF-α, 10 ng/mL; PMA, 200 ng/mL (Calbiochem, LaJolla, Calif.); CsA, 1 μM (Calbiochem); IO 5 μM (Sigma, St Louis, Mo.); thapsigargin, 50 nM (Sigma). In one instance inhibiting (si) RNAs were generated by Dharmacon (Lafayette, Colo.) based on the full-length cDNAs of the respective gene and using the “Smart-pool” service (Dharmacon, Lafayette, Colo.). For adenoviral transduction survival experiments, human umbilical vein endothelial cells (HUVECs) were maintained in endothelial growth medium (EBM-2) complemented with 5% FCS following the manufacturer's instructions. 3×10^5 cells were split per well of a 6 well plate (Primaria, BD Biosciences, Bedford, Mass.) and duplicate experiments for each condition were run in parallel. Cells were infected with adenovirus (MOI=100) encoding for a gD peptide (Ad-Control), DSCR1 (Ad-DSCR1) or an antisense construct with the coding sequence inverted (Ad-DSCR1-AS) for 2 h in serum free media containing 10 mM […] and 10 nM MgCl2 on a vertical shaker at room temperature. Thereafter, 5 times the volume of regular growth medium containing 5% FCS was added and cells were kept for 1 day in a CO2 incubator. Thereafter, cells were washed three times with PBS and basal media (Clonetics, Santa Rosa, Calif.) containing 0.1 % BSA was added and PMA/IO, H202, and ZVAD as indicated. 24 hours after serum starvation and dosing, cell were counted on a Coulter brand style cell counter. For cell culture experiments, the following conditions were used: PMA: 200 ng/ml (Calbiochem, LaJolla, Calif.), Ionomycine: 5 μM (Sigma, St. Louis, Mo.), a 3% H202 solution was diluted 1:300 in basal media, 0.1% BSA to result in a 0.01% H202 solution, ZVAD 5 μM.

DSCR1 [2] = experiment: DSCR1 expression analysis by real-time RT-PCR (TaqMan) in HUVECs; settings: for DSCR1 mRNA levels: HUVECs, after 5.5 hours; for DSCR1 expression levels (real-time RT-PCR): serum-starved HUVECs, over 36 hours
Excerpt: as §2

DSCR1 [3] = experiment: Western blot of DSCR1 after siRNA transfection of HUVECs
Protocol: as §1, with “The enhanced chemiluminescence (ECL) reaction kit was purchased from Amersham Pharmacia Biotech (Piscataway, N.J.), and horseradish peroxidase streptavidin from Vector Laboratories (Burlingame, Calif.) was used. For NFATc1 experiments, equal amounts of cell extract were loaded to visualize NFATc1 (mAb 7A6; 1:500; Santa Cruz Biotechnology) and the loading control α-tubulin (mAb from ICN, Santa Ana, Calif.; 1:5000). For Cox-2 and TF immunoblot analysis equal amounts of cell lysate were loaded on a 6% to 12% gradient SDS-PAGE.” left out, “As loading control, an anti-γ-adaptin mAb was used (1:1000) on a 4% to 20% polyacrylamide gel.” left out

[4] = test system: TF, VCAM-1, E-selectin, ICAM-1; experiment: FACS analysis of inflammatory markers on GFP+ siRNA-transfected HUVECs
Protocol: For transient transfection experiments including siRNA, HUVECs were plated in 6-well plates as described for transient transfection experiments. For 6 replicas, 600 pmol siRNA (Dharmacon, Lafayette, Colo.), 7.5 μg luciferase, and 4 μg Renilla reporter construct were mixed in 6 mL high-glucose DMEM. For FACS and immunohistochemical (IHC) experiments, 11.5 μg enhanced green fluorescent protein (EGFP) plasmid was added instead of the luciferase plasmid. Prior to incubation at 37° C. for 25 to 30 minutes, 30 μL Targefect solution A and 60 μL Targefect solution B (Targeting Systems) were added to the mixture; 1 mL of this solution was used for lipofection as described. Cells were washed twice with PBS prior to addition of serum-free medium and dosing for the indicated amount of time.

NFAT = NFAT luciferase reporter gene assay in endothelial cells
Protocol: For HUVEC and human microvascular endothelial cell (HMVECs) transient transfections, cells (7.5×104) were plated per well of a 6-well dish in 3 mL growth medium (Primaria; BD Biosciences, Bedford, Mass.). The amounts of plasmid DNA used in the lipofection mixture were calculated for transfection of the total of 3 wells. Then, 1.25 μg expression vector, 3.75 μg luciferase reporter, and 2.0 μg SV-Renilla reference reporters were mixed and 14 μL F1 lipofectin reagent (Targeting Systems, Santee, Calif.) was added. Then, 4.5 mL high-glucose Dulbecco modified Eagle medium (DMEM) was added to the mixture. Transient transfection was conducted as recommended by the manufacturer. For reporter gene expression experiments, cells were lysed by using the Dual Luciferase Reporter Kit (Promega, San Luis Obispo, Calif.) in 300 μL of 1×passive lysis buffer following the recommendations of the manufacturer.
For transient transfection experiments including siRNA, HUVECs were plated in 6-well plates as described for transient transfection experiments. For 6 replicas, 600 pmol siRNA (Dharmacon, Lafayette, Colo.), 7.5 μg luciferase, and 4 μg Renilla reporter construct were mixed in 6 mL high-glucose DMEM. For FACS and immunohistochemical (IHC) experiments, 11.5 μg enhanced green fluorescent protein (EGFP) plasmid was added instead of the luciferase plasmid. […]

DSCR1 [5] = experiment: DSCR1 expression by real-time RT-PCR in HPAECs, HMVECs and HUAECs; settings: HMVECs, HUAECs
Excerpt: Cells and cell assays. Primary human endothelial cells were purchased from Clonetics (Santa Rosa, Calif.) and cultured according to the manufacturer's instructions. For gene calling experiments, human umbilical vein endothelial cells (HUVECs) were purchased from Clonetics (BioWhittaker, Walkersville, Md.) and maintained in endothelial growth medium (EBM-2) complemented with 5% fetal calf serum (FCS) following the manufacturer's instructions. Cells (1×107) were split at a cell density of 19 000 cell/cm2 and triplicate experiments for each condition were run in parallel. Twenty-four hours after plating the cells, cell were washed 3 times with phosphate-buffered saline (PBS) and media (Clonetics) containing either 0.1% bovine serum albumin (BSA) or 0.1% BSA plus VEGF (30 ng/mL) or 5% FCS. RNA isolation and reverse transcription-PCR (RT-PCR) analysis was performed as described.^21 For cell culture experiments, the following conditions were used: human (h) VEGF, 30 ng/mL; hTNF-α, 10 ng/mL; PMA, 200 ng/mL (Calbiochem, LaJolla, Calif.); CsA, 1 μM (Calbiochem); IO 5 μM (Sigma, St Louis, Mo.); thapsigargin, 50 nM (Sigma). […] 24 hours after serum starvation and dosing, cell were counted on a Coulter brand style cell counter. […]

[6] = GFP+ activated endothelial cells

Molecule	DSCR1 protein levels (DSCR1 [1])	DSCR1 mRNA levels (DSCR1 [2])	DSCR1 expression levels (real-time RT-PCR) (DSCR1 [2])	also measured
C/C=C(/C)C(=O)O[C@H]1C(C)=C2[C@H]([C@@H]1OC(=O)CCCCCCC)[C@@](C)(OC(C)=O)C[C@H](OC(=O)CCC)[C@@]1(O)[C@H]2OC(=O)[C@@]1(C)O [thapsigargin, reference compound]	induction of DSCR1	significantly increased		induction of COX2, E-selectin and TF mRNA (Cox-2, E-selectin, TF): significant induction
TNF-α	unable to detect increased DSCR1 protein levels	significantly increased		
b-FGF: basic fibroblast growth factor, R&D Systems	no significant increase		did not alter DSCR1 levels significantly	
ionomycine [reference compound]		significantly increased		
siDSCR1: siRNA to DSCR1 (NM_004414): pool of four in VEGF studies, AACGUAUGACAAGGACAUCAC in PMA/IO studies (one strand only stated, further chemistry not given here)				DSCR1 protein expression from cotransfected PRKN-DSCR1-FLAG (DSCR1 [3]; anti-Flag Western blot): complete absence; reduction in endogenous DSCR1 levels (DSCR1 [3]; rabbit polyclonal antiserum Western blot): 50% to 70%; ICAM-1 expression [4, 6]: not significantly affected; expression levels of TF, E-selectin and VCAM-1 [4, 6]: increase; magnitude of induction of inflammatory gene expression in VEGF-stimulated versus PMA/IO-stimulated cells ([4]; GFP+ endothelial cells): clearly below; increase in NFAT activity relative to siControl (NFAT; HUVECs in presence of IO/PMA): 2 fold; increase in NFAT activity relative to siControl (NFAT; HUVECs in presence of VEGF): 3 fold
B1			failed to induce alterations in DSCR1 expression	
B2			equally potent to VEGF	DSCR1 expression (real-time RT-PCR) (DSCR1 [5]): increased levels of DSCR1 expression
B3			failed to induce alterations in DSCR1 expression	
